Data on 30 compounds can be found in US20250171438A1 (Agios Pharmaceuticals, Inc., priority 2022, published 2025).

The assay addresses T1, human PAH with the R408W mutation (Homo sapiens, UniProt P00439, R408W).
T1 construct: expressed in transfected cells
T1 sequence (P00439 1-452 R408W): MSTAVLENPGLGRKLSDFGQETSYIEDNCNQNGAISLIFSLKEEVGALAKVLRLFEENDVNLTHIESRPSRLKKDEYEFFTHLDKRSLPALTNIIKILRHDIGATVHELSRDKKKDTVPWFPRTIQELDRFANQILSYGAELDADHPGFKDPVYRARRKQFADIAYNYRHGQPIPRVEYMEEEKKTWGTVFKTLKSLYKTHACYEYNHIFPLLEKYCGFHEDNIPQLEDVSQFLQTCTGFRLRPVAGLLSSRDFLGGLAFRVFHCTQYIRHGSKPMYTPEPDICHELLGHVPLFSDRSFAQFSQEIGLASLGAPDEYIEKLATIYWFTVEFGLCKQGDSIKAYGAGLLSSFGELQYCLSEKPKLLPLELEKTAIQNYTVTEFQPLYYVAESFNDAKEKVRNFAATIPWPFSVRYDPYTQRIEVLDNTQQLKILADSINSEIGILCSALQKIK
The experiment in a line: Cell Based Phenylalanine Flux Assay. To be noted: A375 cells expressing human R408W PAH; 24 hrs compound incubation; 13C-Tyrosine by LC-MS; average where tested multiple times; read-out: AC50.

Take `CC(C)(O)c1ccc2c(C(=O)N3CCc4[nH]cnc4[C@H]3c3nc4ccccc4s3)cnn2c1` [Example 1473]: the half-maximal activity concentration (AC50) (in general, the midpoint of the concentration-response curve, whichever way the signal moves) was below 500 nM.
Consider `CC(C)(O)c1ccc2c(C(=O)N3CCc4[nH]cnc4[C@@H]3c3nc4ccccc4s3)cnn2c1` [Example 1474, (R)-(4-(benzo[d]thiazol-2-yl)-6,7-dihydro-1H-imidazo[4,5-c]pyridin-5(4H)-yl)(6-(2-hydroxypropan-2-yl)pyrazolo[1,5-a]pyridin-3-yl)methanone], for which the AC50 fell in the range of 1000 to 5000 nM.
Consider `CC(C)(O)c1c(Br)ccc2c(C(=O)N3CCc4[nH]cnc4[C@H]3c3nc4ccccc4s3)cnn12` [Example 1475], for which the AC50 was below 500 nM.
The result for `CC(C)(O)c1c(Br)ccc2c(C(=O)N3CCc4[nH]cnc4[C@@H]3c3nc4ccccc4s3)cnn12` [Example 1476, (R)-(4-(benzo[d]thiazol-2-yl)-6,7-dihydro-1H-imidazo[4,5-c]pyridin-5(4H)-yl)(6-bromo-7-(2-hydroxypropan-2-yl)pyrazolo[1,5-a]pyridin-3-yl)methanone] reads 1000 to 5000 nM; that for `CC(C)(O)c1ncc(C(=O)N2CCc3[nH]cnc3[C@H]2c2nc3c(F)cccc3s2)s1` [Example 1477, (S)-(4-(4-fluorobenzo[d]thiazol-2-yl)-6,7-dihydro-1H-imidazo[4,5-c]pyridin-5(4H)-yl)(2-(2-hydroxypropan-2-yl)thiazol-5-yl)methanone], below 500 nM.
Consider `CC(C)(O)c1ncc(C(=O)N2CCc3[nH]cnc3[C@@H]2c2nc3c(F)cccc3s2)s1` [Example 1478, (R)-(4-(4-fluorobenzo[d]thiazol-2-yl)-6,7-dihydro-1H-imidazo[4,5-c]pyridin-5(4H)-yl)(2-(2-hydroxypropan-2-yl)thiazol-5-yl)methanone], for which the AC50 lay in the range of 1000 to 5000 nM.
Consider `CC(C)(F)c1ccc2c(C(=O)N3CCc4[nH]cnc4[C@H]3c3nc4ccccc4s3)cnn2c1` [Example 1479], for which the AC50 was below 500 nM.
With `CC(C)(F)c1ccc2c(C(=O)N3CCc4[nH]cnc4[C@@H]3c3nc4ccccc4s3)cnn2c1` [Example 1480, (R)-(4-(benzo[d]thiazol-2-yl)-6,7-dihydro-1H-imidazo[4,5-c]pyridin-5(4H)-yl)(6-(2-fluoropropan-2-yl)pyrazolo[1,5-a]pyridin-3-yl)methanone] the figure was 1000 to 5000 nM.
With `CC(C)(O)c1cccc2c(C(=O)N3CCc4[nH]cnc4[C@H]3c3nc4ccccc4s3)cnn12` [Example 1481] the figure was below 500 nM.
As for `CC(C)(O)c1cccc2c(C(=O)N3CCc4[nH]cnc4[C@@H]3c3nc4ccccc4s3)cnn12` [Example 1482, (R)-(4-(benzo[d]thiazol-2-yl)-6,7-dihydro-1H-imidazo[4,5-c]pyridin-5(4H)-yl)(7-(2-hydroxypropan-2-yl)pyrazolo[1,5-a]pyridin-3-yl)methanone], the AC50 was 1000 to 5000 nM.
As for `CC(C)(O)c1ncc(C(=O)N2CCc3[nH]cnc3[C@H]2c2nc3c(F)cccc3s2)o1` [Example 1483, (S)-(4-(4-fluorobenzo[d]thiazol-2-yl)-6,7-dihydro-1H-imidazo[4,5-c]pyridin-5(4H)-yl)(2-(2-hydroxypropan-2-yl)oxazol-5-yl)methanone], the AC50 fell in the range of 500 to 1000 nM.
On to `CC(C)(O)c1ncc(C(=O)N2CCc3[nH]cnc3[C@@H]2c2nc3c(F)cccc3s2)o1` [Example 1484, (R)-(4-(4-fluorobenzo[d]thiazol-2-yl)-6,7-dihydro-1H-imidazo[4,5-c]pyridin-5(4H)-yl)(2-(2-hydroxypropan-2-yl)oxazol-5-yl)methanone], for which the AC50 was in the range of 1000 to 5000 nM.
As for `CC(C)(F)c1ncc(C(=O)N2CCc3[nH]cnc3[C@@H]2c2nc3c(F)cccc3s2)s1` [Example 1485, (R)-(4-(4-fluorobenzo[d]thiazol-2-yl)-6,7-dihydro-1H-imidazo[4,5-c]pyridin-5(4H)-yl)(2-(2-fluoropropan-2-yl)thiazol-5-yl)methanone], the half-maximal activity concentration (AC50) lay in the range of 500 to 1000 nM.
With `CC(C)(F)c1ncc(C(=O)N2CCc3[nH]cnc3[C@H]2c2nc3c(F)cccc3s2)s1` [Example 1486, (S)-(4-(4-fluorobenzo[d]thiazol-2-yl)-6,7-dihydro-1H-imidazo[4,5-c]pyridin-5(4H)-yl)(2-(2-fluoropropan-2-yl)thiazol-5-yl)methanone], the AC50 was below 500 nM.
Consider `CC(C)(F)c1ncc(C(=O)N2CCc3[nH]cnc3[C@H]2c2nc3c(F)cccc3s2)o1` [Example 1487, (S)-(4-(4-fluorobenzo[d]thiazol-2-yl)-6,7-dihydro-1H-imidazo[4,5-c]pyridin-5(4H)-yl)(2-(2-fluoropropan-2-yl)oxazol-5-yl)methanone], for which the AC50 was below 500 nM.
For `CC(C)(F)c1ncc(C(=O)N2CCc3[nH]cnc3[C@@H]2c2nc3c(F)cccc3s2)o1` [Example 1488, (R)-(4-(4-fluorobenzo[d]thiazol-2-yl)-6,7-dihydro-1H-imidazo[4,5-c]pyridin-5(4H)-yl)(2-(2-fluoropropan-2-yl)oxazol-5-yl)methanone], the AC50 fell in the range of 500 to 1000 nM.
As to `CC(C)(F)c1ccc2c(C(=O)N3CCc4[nH]cnc4[C@H]3c3nc4c(F)cccc4s3)cnn2c1` [Example 1489, (S)-(4-(4-fluorobenzo[d]thiazol-2-yl)-6,7-dihydro-1H-imidazo[4,5-c]pyridin-5(4H)-yl)(6-(2-fluoropropan-2-yl)pyrazolo[1,5-a]pyridin-3-yl)methanone], the AC50 was in the range of 500 to 1000 nM.
As for `CC(C)(F)c1ccc2c(C(=O)N3CCc4[nH]cnc4[C@@H]3c3nc4c(F)cccc4s3)cnn2c1` [Example 1490, (R)-(4-(4-fluorobenzo[d]thiazol-2-yl)-6,7-dihydro-1H-imidazo[4,5-c]pyridin-5(4H)-yl)(6-(2-fluoropropan-2-yl)pyrazolo[1,5-a]pyridin-3-yl)methanone], the concentration at half-maximal activity (AC50) lay in the range of 1000 to 5000 nM.
For the compound `Fc1ccc(-c2nnc(N3CCc4[nH]cnc4[C@H]3c3nc4ccccc4s3)o2)cc1` [Example 1491], the AC50 is below 500 nM.
Turning to `Fc1ccc(-c2nnc(N3CCc4[nH]cnc4[C@@H]3c3nc4ccccc4s3)o2)cc1` [Example 1492, (R)-2-(4-(benzo[d]thiazol-2-yl)-6,7-dihydro-1H-imidazo[4,5-c]pyridin-5(4H)-yl)-5-(4-fluorophenyl)-1,3,4-oxadiazole], the AC50 fell in the range of 500 to 1000 nM.
For the compound `O=C(c1ocnc1C(F)(F)F)N1CCc2[nH]cnc2[C@H]1c1nc2c(F)cccc2s1` [Example 1493, (S)-(4-(4-fluorobenzo[d]thiazol-2-yl)-6,7-dihydro-1H-imidazo[4,5-c]pyridin-5(4H)-yl)(4-(trifluoromethyl)oxazol-5-yl)methanone], the half-maximal activity concentration (AC50) is below 500 nM.
Take `O=C(c1ocnc1C(F)(F)F)N1CCc2[nH]cnc2[C@@H]1c1nc2c(F)cccc2s1` [Example 1494, (R)-(4-(4-fluorobenzo[d]thiazol-2-yl)-6,7-dihydro-1H-imidazo[4,5-c]pyridin-5(4H)-yl)(4-(trifluoromethyl)oxazol-5-yl)methanone]: the AC50 was below 500 nM.
In the case of `O=C(c1ocnc1C1CC1)N1CCc2[nH]cnc2[C@H]1c1nc2c(F)cccc2s1` [Example 1495], the AC50 was below 500 nM.
With `O=C(c1ocnc1C1CC1)N1CCc2[nH]cnc2[C@@H]1c1nc2c(F)cccc2s1` [Example 1496, (R)-(4-cyclopropyloxazol-5-yl)(4-(4-fluorobenzo[d]thiazol-2-yl)-6,7-dihydro-1H-imidazo[4,5-c]pyridin-5(4H)-yl)methanone] the figure was 1000 to 5000 nM; with `Cc1nc(C(C)(C)F)oc1C(=O)N1CCc2[nH]cnc2[C@H]1c1nc2ccccc2s1` [Example 1497], below 500 nM.
As for `Cc1nc(C(C)(C)F)oc1C(=O)N1CCc2[nH]cnc2[C@@H]1c1nc2ccccc2s1` [Example 1498, (R)-(4-(benzo[d]thiazol-2-yl)-6,7-dihydro-1H-imidazo[4,5-c]pyridin-5(4H)-yl)(2-(2-fluoropropan-2-yl)-4-methyloxazol-5-yl)methanone], the AC50 was 1000 to 5000 nM.
For the compound `Cc1nc(C(C)(C)F)oc1C(=O)N1CCc2[nH]cnc2[C@H]1c1nc2c(F)cccc2s1` [Example 1499, (S)-(4-(4-fluorobenzo[d]thiazol-2-yl)-6,7-dihydro-1H-imidazo[4,5-c]pyridin-5(4H)-yl)(2-(2-fluoropropan-2-yl)-4-methyloxazol-5-yl)methanone], the half-maximal activity concentration (AC50) was below 500 nM.
With `Cc1nc(C(C)(C)F)oc1C(=O)N1CCc2[nH]cnc2[C@@H]1c1nc2c(F)cccc2s1` [Example 1500, (R)-(4-(4-fluorobenzo[d]thiazol-2-yl)-6,7-dihydro-1H-imidazo[4,5-c]pyridin-5(4H)-yl)(2-(2-fluoropropan-2-yl)-4-methyloxazol-5-yl)methanone], the AC50 was in the range of 500 to 1000 nM.
With `CC(C)(O)c1ccc2c(C(=O)N3CCc4[nH]cnc4[C@H]3c3nc4c(F)cccc4s3)cnn2c1` [Example 1501, (S)-(4-(4-fluorobenzo[d]thiazol-2-yl)-6,7-dihydro-1H-imidazo[4,5-c]pyridin-5(4H)-yl)(6-(2-hydroxypropan-2-yl)pyrazolo[1,5-a]pyridin-3-yl)methanone], the AC50 was below 500 nM.
For the compound `CC(C)(O)c1ccc2c(C(=O)N3CCc4[nH]cnc4[C@@H]3c3nc4c(F)cccc4s3)cnn2c1` [Example 1502, (R)-(4-(4-fluorobenzo[d]thiazol-2-yl)-6,7-dihydro-1H-imidazo[4,5-c]pyridin-5(4H)-yl)(6-(2-hydroxypropan-2-yl)pyrazolo[1,5-a]pyridin-3-yl)methanone], the AC50 was in the range of 1000 to 5000 nM.
